Measured values published in patent US10485808B2, “Selective progesterone receptor modulators (SPRM) and stabilized estrogen level in patient” (BAYER PHARMA AKTIENGESELLSCHAFT, priority 2017, dated 2019).

Tests used:
[1] = test system: women diagnosed with uterine fibroids; assay: Study 17541/A1: estradiol concentrations in serum, 1x24 weeks treatment; assay type: in vivo, human; conditions: for Estradiol concentrations in serum, Max / Estradiol concentrations in serum, Mean / Estradiol concentrations in serum, Median / Estradiol concentrations in serum, Min: Cp1 2 mg once daily oral
Procedure: Example 6: Clinical Study in Women Diagnosed with Uterine Fibroids During a 1×24 Weeks Treatment with Compound 1
Study protocol (N^o 17541/A1):
(§1) Route of administration: Oral
Duration of treatment: 1×24 weeks
Women, 18 to 50 years old, with uterine fibroids documented by transvaginal or abdominal ultrasound at screening with at least 1 uterine fibroid with largest diameter >3 cm and Heavy Menstrual Bleeding (HMB)>80 mL were eligible for enrolment in the study.
Following screening visit 1 (Visit 1), there was a screening period of up to 90 days to arrange for complete results of all baseline assessments. […] Every effort was made to keep the duration of the screening period to a minimum.
Eligible subjects were equally randomized to treatment 2 mg of Compound 1. Treatment was started during the first week of the menstrual cycle following randomization. The treatment period consisted of 24 weeks of daily tablet intake.
In this study, estradiol levels were measured • Treatment Visit 3 (corresponding to the end of 12 weeks treatment), • Treatment Visit 6 (corresponding to the end of 24 weeks treatment).

[2] = test system: healthy women of reproductive age; assay: Study 15818: estradiol (E2) serum concentration after daily oral Compound 1; assay type: in vivo, human
Procedure: Example 2: Circulating Endogenous Estrogen Concentrations in Healthy Women of Reproductive Age Receiving Compound 1 (Cp1)
Study protocol (N^o 15818): A randomized, double-blind, parallel-group, multi-center study to investigate the pharmacodynamics, pharmacokinetics and safety after daily oral administration of 4 different doses of Compound 1 in healthy women of reproductive age
Doses: 0.5 mg, 1 mg, 2 mg, or 4 mg once daily
as §1
Duration of treatment: 1×12 weeks (84 days)
• Age: 18-40 years • Smoking ≤10 cigarettes/day • Body mass index ≥18 and ≤32 kg/m^2 • Signed informed consent prior to study participation • No contraindication for intake of Compound 1 • Ovulation in pre-treatment cycle • Use of non-hormonal contraception during the study. Number of Subjects: see Table 1 for the number of subjects per Dosage Measurement of primary variable Estradiol: The estradiol (E2) serum concentration was assessed for each subject at the following Visit Days of the study, see FIG. 1 • Pre-treatment Day 9 (D9) corresponds to the period before start of Compound 1 uptake; the pre-treatment cycle starts on the first day of the subject waking up with menstrual bleeding with intensity more than spotting after screening examinations have shown that the subject is eligible for further participation. The pre-treatment period ends by the starting of next menstrual bleeding; • Treatment Day (D84) corresponds to last intake of Compound 1. The treatment phase started with the first and ended with the last intake of the study drug. The subjects have to start the intake of Compound 1 during the first week of the menstrual cycle after the pre-treatment cycle until the last Treatment Day (D84). • The follow-up cycle 1 started on the first day without study drug intake and will end in case of start of menstrual bleeding (i.e. when the subject is waking up with menstrual bleeding with intensity more than spotting). The first day of menstrual bleeding will define the start of follow-up cycle 2. Follow-up cycle 2 ended when the subjects report the next menstrual bleeding (i.e. first day of waking up with menstrual bleeding with intensity more than spotting).
During pre-treatment, end of treatment and at Follow-up Cycle 2, Estradiol (E2) serum concentrations are measured.
Eligible subjects were randomized to one of the treatment groups (0.5 mg, 1 mg, 2 mg, or 4 mg Compound 1). The treatment period consisted of 12 weeks (84 days) of daily tablet intake.

[3] = Treatment Visit 3 (end of 12 weeks treatment)
[4] = Treatment Visit 6 (end of 24 weeks treatment)
[5] = Cp1 0.5 mg once daily oral, Follow-up cycle2 D 9
[6] = Cp1 0.5 mg once daily oral, Pre-treatment D 9
[7] = Cp1 0.5 mg once daily oral, Treatment D 84
[8] = Cp1 1 mg once daily oral, Follow-up cycle2 D 9
[9] = Cp1 1 mg once daily oral, Pre-treatment D 9
[10] = Cp1 1 mg once daily oral, Treatment D 84
[11] = Cp1 2 mg once daily oral, Follow-up cycle2 D 9
[12] = Cp1 2 mg once daily oral, Pre-treatment D 9
[13] = Cp1 2 mg once daily oral, Treatment D 84
[14] = Cp1 4 mg once daily oral, Follow-up cycle2 D 9
[15] = Cp1 4 mg once daily oral, Pre-treatment D 9
[16] = Cp1 4 mg once daily oral, Treatment D 84

C[C@]12C[C@H](c3ccc(S(C)(=O)=O)cc3)C3=C4CCC(=O)C=C4CC[C@H]3[C@@H]1CC[C@@]2(O)C(F)(F)C(F)(F)F [Compound 1, (11β,17β)-17-Hydroxy-11-[4-(methylsulphonyl)phenyl]-17-(pentafluoroethyl)estra-4,9-dien-3-one]
Estradiol levels under treatment compared to baseline ([1]; 2 mg once daily, 24 weeks): moderately suppressed
Safety concerns from the data analysed ([1]; 2 mg once daily, 24 weeks): no safety concerns were identified
Estradiol concentrations in serum, Max ([1]; Baseline): 644.2 pg/mL
Estradiol concentrations in serum, Mean ([1]; Baseline): 135.97 pg/mL
Estradiol concentrations in serum, Median ([1]; Baseline): 93.55 pg/mL
Estradiol concentrations in serum, Min ([1]; Baseline): 29.4 pg/mL
Estradiol concentrations in serum, Max [1, 3]: 557.5 pg/mL
Estradiol concentrations in serum, Mean [1, 3]: 77.46 pg/mL
Estradiol concentrations in serum, Median [1, 3]: 47.50 pg/mL
Estradiol concentrations in serum, Min [1, 3]: 11.0 pg/mL
Estradiol concentrations in serum, Max [1, 4]: 132.5 pg/mL
Estradiol concentrations in serum, Mean [1, 4]: 44.69 pg/mL
Estradiol concentrations in serum, Median [1, 4]: 42.50 pg/mL
Estradiol concentrations in serum, Min [1, 4]: 7.9 pg/mL
Mean estradiol values after the EoT ([1]; data not shown): returned to baseline levels
Change of estradiol (E2) concentrations during treatment ([2]; 0.5-4 mg once daily, 12 weeks): slight decrease
Estradiol concentrations in serum, Max [2, 5]: 262 pg/mL
Estradiol concentrations in serum, Mean [2, 5]: 116.1 pg/mL
Estradiol concentrations in serum, Median [2, 5]: 79.9 pg/mL
Estradiol concentrations in serum, Min [2, 5]: 17 pg/mL
Estradiol concentrations in serum, Max [2, 6]: 381 pg/mL
Estradiol concentrations in serum, Mean [2, 6]: 138 pg/mL
Estradiol concentrations in serum, Median [2, 6]: 104.5 pg/mL
Estradiol concentrations in serum, Min [2, 6]: 14 pg/mL
Estradiol concentrations in serum, Max [2, 7]: 423 pg/mL
Estradiol concentrations in serum, Mean [2, 7]: 135.6 pg/mL
Estradiol concentrations in serum, Median [2, 7]: about 80 pg/mL
Estradiol concentrations in serum, Min [2, 7]: 23 pg/mL
Estradiol concentrations in serum, Median ([2]; Cp1 0.5 mg once daily oral, Treatment D 84, listed as Cp1): 82 pg/mL
Estradiol concentrations in serum, Max [2, 8]: 305 pg/mL
Estradiol concentrations in serum, Mean [2, 8]: 143.8 pg/mL
Estradiol concentrations in serum, Median [2, 8]: 119.2 pg/mL
Estradiol concentrations in serum, Min [2, 8]: 39 pg/mL
Estradiol concentrations in serum, Max [2, 9]: 311 pg/mL
Estradiol concentrations in serum, Mean [2, 9]: 143.3 pg/mL
Estradiol concentrations in serum, Median [2, 9]: 92.3 pg/mL
Estradiol concentrations in serum, Min [2, 9]: 39 pg/mL
Estradiol concentrations in serum, Max [2, 10]: 276 pg/mL
Estradiol concentrations in serum, Mean [2, 10]: 119.4 pg/mL
Estradiol concentrations in serum, Median [2, 10]: about 80 pg/mL
Estradiol concentrations in serum, Min [2, 10]: 42 pg/mL
Estradiol concentrations in serum, Median ([2]; Cp1 1 mg once daily oral, Treatment D 84, listed as Cp1): 81.5 pg/mL
Estradiol concentrations in serum, Max [2, 11]: 395 pg/mL
Estradiol concentrations in serum, Mean [2, 11]: 123.9 pg/mL
Estradiol concentrations in serum, Median [2, 11]: 80.9 pg/mL
Estradiol concentrations in serum, Min [2, 11]: 33 pg/mL
Estradiol concentrations in serum, Max [2, 12]: 308 pg/mL
Estradiol concentrations in serum, Mean [2, 12]: 113.5 pg/mL
Estradiol concentrations in serum, Median [2, 12]: 82.2 pg/mL
Estradiol concentrations in serum, Min [2, 12]: 33 pg/mL
Estradiol concentrations in serum, Max [2, 13]: 330 pg/mL
Estradiol concentrations in serum, Mean [2, 13]: 91.2 pg/mL
Estradiol concentrations in serum, Median [2, 13]: about 80 pg/mL
Estradiol concentrations in serum, Min [2, 13]: 34 pg/mL
Estradiol concentrations in serum, Median ([2]; Cp1 2 mg once daily oral, Treatment D 84, listed as Cp1): 78.5 pg/mL
Estradiol concentrations in serum, Max [2, 14]: 279 pg/mL
Estradiol concentrations in serum, Mean [2, 14]: 109.9 pg/mL
Estradiol concentrations in serum, Median [2, 14]: 88.7 pg/mL
Estradiol concentrations in serum, Min [2, 14]: 41 pg/mL
Estradiol concentrations in serum, Max [2, 15]: 200 pg/mL
Estradiol concentrations in serum, Mean [2, 15]: 126.4 pg/mL
Estradiol concentrations in serum, Median [2, 15]: 122.9 pg/mL
Estradiol concentrations in serum, Min [2, 15]: 44 pg/mL
Estradiol concentrations in serum, Max [2, 16]: 81 pg/mL
Estradiol concentrations in serum, Mean [2, 16]: 53.9 pg/mL
Estradiol concentrations in serum, Median [2, 16]: about 50 pg/mL
Estradiol concentrations in serum, Min [2, 16]: 39 pg/mL
Estradiol concentrations in serum, Median ([2]; Cp1 4 mg once daily oral, Treatment D 84, listed as Cp1): 50.5 pg/mL
Reversibility of estradiol (E2) decrease after end of treatment ([2]; pre-treatment vs follow-up Cycle 2): completely reversible
